From the NIST ThermoML archive (doi:10.1016/j.jct.2017.02.025)
Numbers after ± are expanded uncertainties.

Tests used:
[1] = Molar enthalpy of transition or fusion; details: Crystal; DSC
[2] = Crystal; DTA

CCCCCCCCCCCCCCCCCCCCCCCCCCCCO [1-octacosanol]
Molar enthalpy of transition or fusion [1]: 25.9 ± 0.598 kcal/mol
Normal melting temperature [2]: 82.8 ± 1.1 °C
